In US6541463B1, “Inhibitors of type 5 and type 3 17β-hydroxysteroid dehydrogenase and methods for their use” (Endorecherche, Inc., priority 1998, dated 2003):
Read-outs that look alike come from different tables or passages of the source.

Legend:
[1] = test system: progesterone receptor; assay: Progesterone receptor assay: inhibition of [3H]R5020 binding, uterine cytosol; parameters: species or system rat
Description: The manner in which the percentage of inhibition is determined is described in “Other Tests; E-Progesterone Receptor Assay”. Lower numbers are desirable.
[17α-methyl-^3H]-promegestone (R5020) (84 Ci/mmol) and the corresponding unlabeled compound were purchased from New England Nuclear (Lachine, Québec, Canada). All other chemicals were of analytical grade.
(§1) Stock solutions of the unlabeled steroids were kept at 4° C. in ethanol. The desired steroid solutions were then prepared by appropriate dilution in buffer B (10 mM Tris-HCl, 1.5 mM EDTA, 10 mM α-monothioglycerol, pH 7.4) containing 30% ethanol.
Female Sprague-Dawley rats weighing 200-300 g were obtained from Charles-River Inc. (St-Constant, Québec, Canada). The rats were gonadectomized under general anesthesia (Isoflurane) and killed by cervical dislocation 24 hours later. The uteri are rapidly removed, dissected free from adhering tissue and frozen on dry-ice. Tissues were kept at −80° C. until use.
All procedures were performed at 4° C. Tissues were pulverized frozen in dry ice with a Thermovac pulverizer. The samples were then homogenized in 10 vol (w/v) of buffer A (25 mM Tris-HCl, 1.5 mM EDTA, 10 mM α-monothioglycerol, 10% glycerol, 10 mM sodium molybdate, pH 7.4) using a Polytron PT-10 homogenizer (Brinkmann Instruments, Canada) at a setting of 5 for two periods of 10 sec, with intervals of 10 sec for cooling. The homogenate was then centrifuged at 105,000×g for 90 min. The supernatant was used immediately for assay.
Progesterone binding was measured using the dextran-coated charcoal adsorption technique. […] Each concentration was done in triplicate. Assay was ended with 300 μl of DCC (1% Norit A and 0.1% Dextran T-70 in Buffer B). After 10 min of incubation, tubes were centrifuged at 2,000×g for 10 min. and decanted in vials with 6 ml of BCS liquid scintillation (New England Nuclear, Dupont). The radioactivity was measured in a Beckman counter at a counting efficiency of 35%.

[2] = biological target: T1, glucocorticoid receptor (Rattus norvegicus, UniProt P06536); assay: Glucocorticoid receptor assay: inhibition of [3H]-dexamethasone binding, liver cytosol; conditions: for inhibition at 1 µM: read-out: % Inhibition Glucocorticold Receptor E^−6; for inhibition at 0.01 µM: read-out: % Inhibition Glucocorticold Receptor E^−8
T1 construct: from tissue; host or cells: liver cytosol of male Sprague-Dawley rats
T1 sequence (P06536 1-795): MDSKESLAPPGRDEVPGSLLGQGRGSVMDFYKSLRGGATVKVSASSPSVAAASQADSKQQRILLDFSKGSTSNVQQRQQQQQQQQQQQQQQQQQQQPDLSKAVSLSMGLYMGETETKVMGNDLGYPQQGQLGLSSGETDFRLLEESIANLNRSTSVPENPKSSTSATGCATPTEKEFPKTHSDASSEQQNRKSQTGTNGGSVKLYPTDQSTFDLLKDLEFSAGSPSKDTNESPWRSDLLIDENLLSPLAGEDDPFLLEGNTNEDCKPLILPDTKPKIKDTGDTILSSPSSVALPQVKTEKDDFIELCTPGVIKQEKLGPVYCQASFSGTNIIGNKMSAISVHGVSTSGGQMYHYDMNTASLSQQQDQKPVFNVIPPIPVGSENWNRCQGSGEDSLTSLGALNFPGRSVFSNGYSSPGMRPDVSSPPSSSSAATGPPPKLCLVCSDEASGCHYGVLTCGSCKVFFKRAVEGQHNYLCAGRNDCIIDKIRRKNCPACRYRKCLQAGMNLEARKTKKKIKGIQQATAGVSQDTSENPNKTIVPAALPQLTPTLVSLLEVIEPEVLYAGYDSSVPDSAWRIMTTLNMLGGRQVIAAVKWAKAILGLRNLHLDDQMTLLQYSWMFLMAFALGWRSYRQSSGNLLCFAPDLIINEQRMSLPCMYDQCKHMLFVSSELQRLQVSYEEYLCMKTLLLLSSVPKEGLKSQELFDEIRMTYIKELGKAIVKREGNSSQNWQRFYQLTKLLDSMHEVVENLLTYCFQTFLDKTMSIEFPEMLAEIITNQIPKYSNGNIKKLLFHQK
Description: The manner in which the percentage of inhibition is determined is described in “Other Tests; F-Glucocorticoid Receptor Assay”.
[6,7-^3H(N)]-Dexamethasone (39 Ci/mmol) was purchased from New England Nuclear (Lachine, Québec, Canada) while unlabeled dexametasone was obtained from Steraloids (Wilton, N.H.). All other chemicals were of analytical grade.
as §1
Male Sprague-Dawley rats weighing 200-300 g were obtained from Charles-River Inc. (St-Constant, Québec, Canada). The rats were killed by cervical dislocation and the liver were rapidly removed, dissected free from adhering tissue and frozen on dry-ice. Tissues were kept at −80° C. until use.
All procedures were performed at 4° C. Tissues were eminced and homogenized in 10 vol (w/v) of buffer A (25 mM Tris-HCl, 1.5 mM EDTA, 10 mM α-monothioglycerol, 10% glycerol, 10 mM sodium molybdate, pH 7.4) using a Polytron PT-10 homogenizer (Brinkmann Instruments, Canada) at a setting of 5 for two periods of 10 sec, with intervals of 10 sec for cooling. The homogenate was then centrifuged at 105,000×g for 90 min. The supernatant was used immediately for assay.
Glucocorticoid binding was measured using the dextran-coated charcoal adsorption technique. Incubations were performed at 0-4° C. for 16-18 h using 100 μl of cytosol, 100 μl of [^3H]-Dexamethasone (5 nM final) and 100 μl of unlabeled compounds at the indicated concentrations. Each concentration was done in triplicate. Assay was ended with 300 μl of DCC (2.5% Norit A and 0.25% Dextran T-70 in Buffer B). After 10 min of incubation, tubes were centrifuged at 2,000×g for 10 min. and decanted in vials with 6 ml of BCS liquid scintillation (New England Nuclear, Dupont). The radioactivity was measured in a Beckman counter at a counting efficiency of 35%.

| SMILES | % Inhibition Progesterone Receptor E^−6 ([1]; Table 4′, E^−6) | % Inhibition Progesterone Receptor E^−8 ([1]; Table 4′, E^−8) | inhibition at 1 µM ([2]; Table 4′, E^−6) | inhibition at 0.01 µM ([2]; Table 4′, E^−8) | further results |
| --- | --- | --- | --- | --- | --- |
| CC1CCC2(CCC3C4CCc5cc(O)c([N+](=O)[O-])cc5C4CCC32C)OC1=O [EM-1126, 2-Nitro-1,3,5(10)-estratrien-3-ol-17(R)-spiro-2′-(5′-methyl-6′-oxo)tetrahydropyran] | 14% | 5% |  |  | % Inhibition Glucocorticold Receptor E^−6 ([2]; Table 4′, E^−6): 0%; % Inhibition Glucocorticold Receptor E^−8 ([2]; Table 4′, E^−8): 0% |
| C[C@]12CCC3c4ccc(O)cc4CCC3C1CC[C@@]21CCCC(=O)O1 (stereo partly drawn) [EM-919, 1,3,5(10)-estratrien-3-ol-17(R)-spiro-2′(6′-oxo)tetrahydropyran] |  |  |  |  | % Inhibition Progesterone Receptor *E^−5 ([1]; Table 4′, starred values, E^−5): 68* %; % Inhibition Progesterone Receptor *E^−7 ([1]; Table 4′, starred values, E^−7): 8* %; % Inhibition Glucocorticold Receptor *E^−5 ([2]; Table 4′, starred values, E^−5): 33* %; % Inhibition Glucocorticold Receptor *E^−7 ([2]; Table 4′, starred values, E^−7): 0* % |
| COCCOc1cc2c(cc1C(=O)O)C1CCC3(C)C(CCC34CCC(C)(C)C(=O)O4)C1CC2 [EM-1405, 2-Carboxy-3-(2″-methoxyethyloxy)-1,3,5(10)-estratrien-17(R)-spiro-2′-(5′,5′-dimethyl-6′-oxo)tetrahydropyran] | 0% | 0% | 0% | 0% |  |
| COC(=O)CCCC(=O)O[C@]1(C(C)=O)CC[C@H]2[C@@H]3C=C(C)C4=CC(=O)CC[C@]4(C)[C@H]3CC[C@@]21C [EM-1007, 6-Methyl-4,6-pregnadien-17α-ol-3,20-dione 4′-Carbomethoxybutyrate] |  |  |  |  | % Inhibition Progesterone Receptor ([1]; E^−6): 0%; % Inhibition Progesterone Receptor ([1]; E^−8): 0%; % Inhibition Glucocorticoid Receptor ([2]; E^−6): 0%; % Inhibition Glucocorticoid Receptor ([2]; E^−8): 0% |
| CC(=O)O[C@]1(C)C(=O)CCC2C3C=C(C)C4=CC(=O)C=C[C@]4(C)C3CC[C@@]21C (some centres unmarked) [CS-237] |  |  |  |  | % Inhibition Progesterone Receptor E^−6 ([1]; E^−6): 0%; % Inhibition Progesterone Receptor E^−8 ([1]; E^−8): 0%; % Inhibition Glucocorticoid Receptor E^−6 ([2]; E^−6): 69%; % Inhibition Glucocorticoid Receptor E^−8 ([2]; E^−8): 7% |
| COCCOc1ccc2c(c1)C(=O)CC1C2CCC2(C)C1CCC21CCC(C)(C)C(=O)O1 (centres unmarked) [EM-1408-CS] | 0% | 0% | 0% | 0% |  |
| CCS(=O)(=O)Oc1ccc2c(c1)CCC1C2CCC2(C)C1CCC21CCC(C)(C)C(=O)O1 (centres unmarked) [EM-1364-CS] | 0% | 0% | 3% | 0% |  |
| CC1(C)CCC2(CCC3C4CCc5cc(O)c([N+](=O)[O-])cc5C4CCC32C)OC1=O (centres unmarked) [EM-1125-CS] | 7% | 5% | 1% | 0% |  |
| CN1C(=O)C=C[C@]2(C)C3CC[C@@]4(C)C(CC[C@@]45CCCC(=O)O5)C3CCC12 (some centres unmarked) [EM-1122-CS] |  |  |  |  | % Inhibition Progesterone Receptor E^−6 ([1]; Table 5 column 14, E^−6): 3%; % Inhibition Progesterone Receptor E^−8 ([1]; Table 5 column 14, E^−8): 0%; inhibition at 1 µM ([2]; Table 5 column 15, E^−6): 0%; inhibition at 0.01 µM ([2]; Table 5 column 15, E^−8): 0% |
| CC1(C)CCC2(CCC3C4CCc5cc(OCCN6CCCCC6)ccc5C4CCC32C)OC1=O [EM-1390-CS, 3-(N-piperidyl-ethyl)-1,3,5(10)-estratrien-17(R)-spiro-2′-(5′,5′-dimethyl-6′-oxo)-tetrahydropyran] | 2% | 0% | 0% | 2% |  |
| COc1ccc2c(c1)C(=O)CC1C2CC[C@@]2(C)C1CC[C@@]21CCC(C)(C)C(=O)O1 (some centres unmarked) [EM-1394] | 4% | 2% | 2% | 3% |  |
| CC1(C)CCC2(CCC3C4CCc5c(cc(Cl)c(O)c5Cl)C4CCC32C)OC1=O (centres unmarked) [EM-1391-CS] | 1% | 1% | 2% | 0% |  |
| C[C@]12CCC3c4cc([N+](=O)[O-])c(O)cc4CCC3C1CC[C@@]21CCCC(=O)O1 (stereo partly drawn) [EM-1124, 2-Nitro-1,3,5(10)-estraetriene-3-ol-17(R)-spiro-2′-(6′-oxo)tetrahydropyran] | 20% | 1% | 1% | 1% |  |
| COCCOc1cc2c(cc1C#N)C1CC[C@@]3(C)C(CC[C@@]34CCC(C)(C)C(=O)O4)C1CC2 (some centres unmarked) [EM-1396] | 0% | 0% | 1% | 0% |  |
| CSCCOc1ccc2c(c1)CCC1C2CCC2(C)C1CCC21CCCC(=O)O1 [CS-242, 3-Methylthioethyloxy-1,3,5(10)-estratrien-17(R)-spiro-2′-(6′-oxo) Tetrahydropyran] | 0% | 0% | 0% | 0% |  |
| COc1cc2c(cc1C)C1CCC3(C)C(CCC34CCC(C)(C)C(=O)O4)C1CC2 (centres unmarked) [EM-1412-CS] | 0% | 0% | 2% | 0% |  |
| CC1(C)CCC2(CCC3C4CCc5cc(OS(C)(=O)=O)ccc5C4CCC32C)OC1=O (centres unmarked) [EM-1365-CS] | 2% | 2% | 5% | 0% |  |
